Molecular target: T1, human kinase Mps-1 (Homo sapiens, UniProt P33981)
T1 construct: N-terminally GST-tagged human full length recombinant Mps-1 kinase; purchased Invitrogen, Karslruhe, Germany PV4071
T1 sequence (P33981 1-857): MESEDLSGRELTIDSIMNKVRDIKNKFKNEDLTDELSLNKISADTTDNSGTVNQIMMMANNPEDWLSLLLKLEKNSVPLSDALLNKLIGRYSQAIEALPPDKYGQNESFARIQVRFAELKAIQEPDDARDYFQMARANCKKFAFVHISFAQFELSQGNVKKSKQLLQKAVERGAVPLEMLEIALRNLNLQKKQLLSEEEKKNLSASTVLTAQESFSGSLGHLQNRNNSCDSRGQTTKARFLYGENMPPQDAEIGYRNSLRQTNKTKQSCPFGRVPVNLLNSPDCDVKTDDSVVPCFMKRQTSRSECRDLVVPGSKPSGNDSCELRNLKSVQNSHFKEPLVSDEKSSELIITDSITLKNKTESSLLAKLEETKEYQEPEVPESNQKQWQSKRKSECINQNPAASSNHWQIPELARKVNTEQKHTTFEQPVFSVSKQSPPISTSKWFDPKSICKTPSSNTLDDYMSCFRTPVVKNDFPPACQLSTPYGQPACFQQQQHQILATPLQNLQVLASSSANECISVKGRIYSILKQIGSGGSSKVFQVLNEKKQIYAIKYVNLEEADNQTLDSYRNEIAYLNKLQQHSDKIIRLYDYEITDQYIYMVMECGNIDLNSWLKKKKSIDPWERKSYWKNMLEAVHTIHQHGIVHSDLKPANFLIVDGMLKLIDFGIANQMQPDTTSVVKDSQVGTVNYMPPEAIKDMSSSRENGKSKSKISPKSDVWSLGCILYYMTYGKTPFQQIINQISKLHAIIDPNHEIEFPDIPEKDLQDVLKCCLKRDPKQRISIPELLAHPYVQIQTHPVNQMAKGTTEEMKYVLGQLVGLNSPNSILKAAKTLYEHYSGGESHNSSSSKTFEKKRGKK
Assay: Mps-1 kinase assay (HTRF)
Assay type: biochemical
Settings: lowATP; mean; read-out: Mps1 lowATP mean IC50
Summary of the method: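 HTRF readout: EDTA-stopped reactions incubated 1 h with europium anti-phospho(Ser/Thr) antibody and streptavidin-XLent, emission ratio 665/620 nm after 350 nm excitation. Kinase step: compound pre-bound 15 min to ~1 nM GST-Mps-1, then 60 min at 22 °C with ATP and biotin-peptide substrate; inhibition scaled between no-inhibitor (0%) and no-enzyme (100%) controls.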

Structure (SMILES)	IC50 [nM]
CC(C)CNc1nc2ccccc2n2c(-c3ccc(C(=O)Nc4ccc(CN5CCN(C)CC5)c(C(F)(F)F)c4)cc3)cnc12 [Example 3-31, N-{4-[(4-methylpiperazin-1-yl)methyl]-3-(trifluoromethyl)phenyl}-4-{4-[(2-methylpropyl)amino]imidazo[1,2-a]quinoxalin-1-yl}benzamide]	4570
CNC(=O)Nc1ccc(-c2cnc3c(NCc4cccc(F)c4)nc4cc(C)c(C)cc4n23)cc1 [Example 2-161, 1-(4-{4-[(3-fluorobenzyl)amino]-7,8-dimethylimidazo[1,2-a]quinoxalin-1-yl}phenyl)-3-methylurea]	1310
Cc1ccc(-c2cnc3c(NCC(C)C)nc4ccccc4n23)c(F)c1 [Example 1-42, 1-(2-fluoro-4-methylphenyl)-N-(2-methylpropyl)imidazo[1,2-a]quinoxalin-4-amine]	5910
CC(C)CNc1nc2ccccc2n2c(-c3ccc(C(=O)NCCc4cccnc4)cc3)cnc12 [Example 3-20, 4-{4-[(2-methylpropyl)amino]imidazo[1,2-a]quinoxalin-1-yl}-N-[2-(pyridin-3-yl)ethyl]benzamide]	4480
O=C(NC1CC1)c1ccc(-c2cnc3c(NCC(O)CO)nc4cc(F)c(F)cc4n23)cc1 (stereo not shown) [Example 2-113, N-cyclopropyl-4-{4-[(2,3-dihydroxypropyl)amino]-7,8-difluoroimidazo[1,2-a]quinoxalin-1-yl}benzamide]	197
CC(C)CNc1nc2ccccc2n2c(-c3ccc(C(=O)NC(C)CO)cc3)cnc12 (stereo not shown) [Example 3-15, N-(1-hydroxypropan-2-yl)-4-{4-[(2-methylpropyl)amino]imidazo[1,2-a]quinoxalin-1-yl}benzamide]	1090
O=C(NC1CC1)c1ccc(-c2cnc3c(NCCN4CCNC4=O)nc4ccccc4n23)cc1 [Example 2-33, N-cyclopropyl-4-(4-{[2-(2-oxoimidazolidin-1-yl)ethyl]amino}imidazo[1,2-a]quinoxalin-1-yl)benzamide]	1150
CNC(=O)Nc1ccc(-c2cnc3c(NCc4ccccc4F)nc4ccc(F)cc4n23)cc1 [Example 2-62, 1-(4-{8-fluoro-4-[(2-fluorobenzyl)amino]imidazo[1,2-a]quinoxalin-1-yl}phenyl)-3-methylurea]	17600
CC(C)CNc1nc2ccccc2n2c(-c3ccc(O)cc3)cnc12 [Example 1-37, 4-{4-[(2-methylpropyl)amino]imidazo[1,2-a]quinoxalin-1-yl}phenol]	301
COCCNc1nc2cc(C)c(C)cc2n2c(-c3ccc(C(=O)NC4CC4)c(Cl)c3)cnc12 [Example 2-183, 2-chloro-N-cyclopropyl-4-{4-[(2-methoxyethyl)amino]-7,8-dimethylimidazo[1,2-a]quinoxalin-1-yl}benzamide]	113
CC(C)CNc1nc2ccccc2n2c(-c3ccc4cc[nH]c4c3)cnc12 [Example 1-13, 1-(1H-indol-6-yl)-N-(2-methylpropyl)imidazo[1,2-a]quinoxalin-4-amine]	2010
CC(C)CNc1nc2ccccc2n2c(-c3ccc(C(=O)N4CCCC4)cc3)cnc12 [Example 1-16, (4-{4-[(2-methylpropyl)amino]imidazo[1,2-a]quinoxalin-1-yl}phenyl)(pyrrolidin-1-yl)methanone]	3670
CC(C)CNc1nc2ccccc2n2c(-c3cccnc3)cnc12 [Example 1-32, N-(2-methylpropyl)-1-(pyridin-3-yl)imidazo[1,2-a]quinoxalin-4-amine]	18900
O=C(NC1CC1)c1ccc(-c2cnc3c(NC[C@@H](O)CO)nc4ccc(F)cc4n23)cc1Cl (stereo in doubt) [Example 2-87, 2-chloro-N-cyclopropyl-4-{4-[(2,3-dihydroxypropyl)amino]-8-fluoroimidazo[1,2-a]quinoxalin-1-yl}benzamide]	12200
O=C(NC1CC1)c1ccc(-c2cnc3c(NCCCCO)nc4ccc(F)cc4n23)cc1Cl [Example 2-79, 2-chloro-N-cyclopropyl-4-{8-fluoro-4-[(4-hydroxybutyl)amino[imidazo]1,2-a]quinoxalin-1-yl}benzamide]	1330
Cc1cc2nc(NCCCN3CCOCC3)c3ncc(-c4ccc(C(=O)NC5CC5)c(Cl)c4)n3c2cc1C [Example 2-180, 2-chloro-N-cyclopropyl-4-(7,8-dimethyl-4-{[3-(morpholin-4-yl)propyl]amino}imidazo[1,2-a]quinoxalin-1-yl)benzamide]	473
NS(=O)(=O)c1ccc(CNc2nc3ccccc3n3c(-c4ccc(C(=O)NC5CC5)cc4)cnc23)cc1 [Example 2-25, N-cyclopropyl-4-{4-[(4-sulfamoylbenzyl)amino]imidazo[1,2-a]quinoxalin-1-yl}benzamide]	160
CC(C)CCNc1nc2cc(C#N)ccc2n2c(-c3ccc(C(=O)NC4CC4)c(Cl)c3)cnc12 [Example 2-237, 2-chloro-4-{7-cyano-4-[(3-methylbutyl)amino]imidazo[1,2-a]quinoxalin-1-yl}-N-cyclopropylbenzamide]	600
CNC(=O)CNC(=O)c1ccc(-c2cnc3c(NCC(C)C)nc4ccccc4n23)cc1 [Example 3-19, N-[2-(methylamino)-2-oxoethyl]-4-{4-[(2-methylpropyl)amino]imidazo[1,2-a]quinoxalin-1-yl}benzamide]	11600
N#Cc1ccc2c(c1)nc(NCCC(N)=O)c1ncc(-c3ccc(C(=O)NC4CC4)cc3)n12 [Example 2-217, 4-{4-[(3-amino-3-oxopropyl)amino]-7-cyanoimidazo[1,2-a]quinoxalin-1-yl}-N-cyclopropylbenzamide]	140
O=C(NC1CC1)c1ccc(-c2cnc3c(NCc4ccncc4)nc4cc(F)c(F)cc4n23)cc1Cl [Example 2-136, 2-chloro-N-cyclopropyl-4-{7,8-difluoro-4-[(pyridin-4-ylmethyl)amino]imidazo[1,2-a]quinoxalin-1-yl}benzamide]	1710

These reach a lower IC50. Values come first.

IC50 [nM]	Structure (SMILES)
66.4	O=C(NC1CC1)c1ccc(-c2cnc3c(NCCCCO)nc4ccc(F)cc4n23)cc1 [Example 2-47, N-cyclopropyl-4-{8-fluoro-4-[(4-hydroxybutyl)amino]imidazo[1,2-a]quinoxalin-1-yl}benzamide]
61.4	O=C(NC1CC1)c1ccc(-c2cnc3c(NCc4ccc5c(c4)OCO5)nc4ccccc4n23)cc1 [Example 2-28, 4-{4-[(1,3-benzodioxol-5-ylmethyl)amino]imidazo[1,2-a]quinoxalin-1-yl}-N-cyclopropylbenzamide]
43.5	Cc1cc2nc(NCC3CC3)c3ncc(-c4ccc(C(=O)NC5CC5)c(Cl)c4)n3c2cc1C [Example 2-190, 2-chloro-N-cyclopropyl-4-{4-[(cyclopropylmethyl)amino]-7,8-dimethylimidazo[1,2-a]quinoxalin-1-yl}benzamide]
42.2	NS(=O)(=O)CCNc1nc2ccccc2n2c(-c3ccc(C(=O)NC4CC4)cc3)cnc12 [Example 2-38, N-cyclopropyl-4-{4-[(2-sulfamoylethyl)amino]imidazo[1,2-a]quinoxalin-1-yl}benzamide]
28.9	N#Cc1ccc2c(c1)nc(NCC(F)(F)F)c1ncc(-c3ccc(C(=O)NC4CC4)cc3)n12 [Example 2-209, 4-{7-cyano-4-[(2,2,2-trifluoroethyl)amino]imidazo[1,2-a]quinoxalin-1-yl}-N-cyclopropylbenzamide]
28.3	CCCCNc1nc2cc(F)c(F)cc2n2c(-c3ccc(C(=O)NC4CC4)cc3)cnc12 [Example 2-101, 4-[4-(butylamino)-7,8-difluoroimidazo[1,2-a]quinoxalin-1-yl]-N-cyclopropylbenzamide]
24.1	O=C(NC1CC1)c1ccc(-c2cnc3c(NCC4CC4)nc4ccccc4n23)cc1 [Example 2-23, N-cyclopropyl-4-{4-[(cyclopropylmethyl)amino]imidazo[1,2-a]quinoxalin-1-yl}benzamide]
10	CCCCNc1nc2cc(C#N)ccc2n2c(-c3ccc(C(=O)NC4CC4)cc3)cnc12 [Example 2-212, 4-[4-(butylamino)-7-cyanoimidazo[1,2-a]quinoxalin-1-yl]-N-cyclopropylbenzamide]
8.49	Cc1cc2nc(NCc3ccn(C)n3)c3ncc(-c4ccc(C(=O)NC5CC5)cc4)n3c2cc1C [Example 2-156, N-cyclopropyl-4-(7,8-dimethyl-4-{[(1-methyl-1H-pyrazol-3-yl)methyl]amino}imidazo[1,2-a]quinoxalin-1-yl)benzamide]
6.01	Cc1cc2nc(NCc3cccnc3)c3ncc(-c4ccc(C(=O)NC5CC5)cc4)n3c2cc1C [Example 2-152, N-cyclopropyl-4-{7,8-dimethyl-4-[(pyridin-3-ylmethyl)amino]imidazo[1,2-a]quinoxalin-1-yl}benzamide]
